The source made the active and inactive calls. The rule behind the calls is not given here.
Assays:
[1] = molecular target: T1, Type-1 angiotensin II receptor (Oryctolagus cuniculus) (UniProt P34976); experiment: In vitro antagonist activity against Angiotensin II Receptor (Ang II) in isolated rabbit thoracic aorta.; format: functional, tissue-based
T1 sequence (whole entry): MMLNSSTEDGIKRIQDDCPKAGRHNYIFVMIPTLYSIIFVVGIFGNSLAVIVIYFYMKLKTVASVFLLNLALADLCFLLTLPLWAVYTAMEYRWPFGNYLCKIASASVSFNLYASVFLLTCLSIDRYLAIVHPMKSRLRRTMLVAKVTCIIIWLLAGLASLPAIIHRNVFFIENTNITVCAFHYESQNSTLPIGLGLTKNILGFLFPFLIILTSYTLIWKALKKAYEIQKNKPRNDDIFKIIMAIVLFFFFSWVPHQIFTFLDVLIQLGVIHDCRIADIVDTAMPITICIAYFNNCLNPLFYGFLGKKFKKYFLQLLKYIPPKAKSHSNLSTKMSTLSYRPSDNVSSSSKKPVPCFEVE

[2] = system: Rattus norvegicus; experiment: Evaluated in vivo for its ability to block the pressor response to Ang II in pithed rats following oral administration; NA means not active at the dose (10 mg/kg) and time tested (4 h); format: functional, organism-based
[3] = system: Rattus norvegicus; experiment: Evaluated in vivo for its ability to block the pressor response to Ang II in pithed rats following oral administration.; format: functional

Row | pKB [1] | SMILES | KB [2] | KB [3] [mg/kg]
1 | 9 | CCCCCC[C@H](C(=O)N1C[C@@H](Oc2ccc(CC(=O)O)cc2)C[C@H]1C(=O)O)n1cnc2cc(-c3ccccc3S(=O)(=O)O)ccc21 | inactive | –
2 | 7.8 | CCCCCC[C@@H](C(=O)N1C[C@@H](Oc2ccc(CC(=O)O)cc2)C[C@H]1C(=O)O)n1cnc2cc(-c3ccccc3S(=O)(=O)O)ccc21 | – | –
3 | 7.7 | CCCCCCC(C(=O)O)n1cnc2cc(-c3ccccc3S(=O)(=O)O)ccc21 (stereo in doubt; 4) | inactive | –
4 | 9.1 | CCCCCC[C@H](C(=O)N1C[C@@H](Oc2ccccc2)C[C@H]1C(=O)O)n1cnc(NC(=O)c2ccccc2S(=O)(=O)O)c1 | – | –
5 | 8.4 | CCCCCC[C@@H](C(=O)N1C[C@@H](Oc2ccc(CC(=O)O)cc2)C[C@H]1C(=O)O)n1cnc(NC(=O)c2ccccc2S(=O)(=O)O)c1 | inactive | –
6 | 7.6 | CCCCCC[C@@H](C(=O)N1C[C@@H](Oc2ccccc2)C[C@H]1C(=O)O)n1cnc(NC(=O)c2ccccc2S(=O)(=O)O)c1 | – | –
7 | 9.7 | CCCCCC[C@H](C(=O)N1C[C@@H](Oc2ccc(CC(=O)O)cc2)C[C@H]1C(=O)O)n1cnc(NC(=O)c2ccccc2S(=O)(=O)O)c1 | – | 2.8
8 | 7.2 | CCCCCCC(C(=O)O)n1cnc(NC(=O)c2ccccc2S(=O)(=O)O)c1 (centres undefined) | inactive | –
9 | 5.6 | CCCCCCC(C(=O)O)n1cnc2cc(-c3ccccc3S(=O)(=O)O)ccc21 (stereo in doubt) | – | –
